The values below are quoted from earlier work in patent US20250032538A1, “METHOD AND COMPOSITION FOR RESTORING HOMEOSTASIS, TREATING, AND PREVENTING DEGENERATIVE DISEASES, ACHIEVING ANTI-AGING EFFECT” (Vector Vitale IP LLC, priority 2023, published 2025).

The test system of series [1] is rats.
The test system of series [2] is rats. The settings on record: rat, in vivo.

Where two headings read alike, the source gives them in different places.

For `[Cl-].[Cl-].[Cl-].[Sc+3]` [scandium (III) chloride], the “half lethal dose (LD50)” value in the series with rats [1] (intraperitoneal) is listed as 4 mg/kg; in the series with rats [1] (oral administration) it was 755 mg/kg.

For the molecule Titanium dioxide, the “carcinogenicity: lung tumors” value in the series with rats [2] is recorded as “increased lung tumors”.
